The Km is the concentration of substrate that gives half-maximal velocity.

Assay [1] concerns the target T1, MTHFD2 (Homo sapiens, UniProt P13995).
T1 construct: 12 amino acids were removed from the unstructured C-terminus of the protein, and a 6-histidine tag added to facilitate purification; 6-histidine tag (C); made in house; host or cells: E. coli One Shot BL21 Star (DE3), pET-30a(+)
T1 sequence (P13995 with tags, fused parts or gaps): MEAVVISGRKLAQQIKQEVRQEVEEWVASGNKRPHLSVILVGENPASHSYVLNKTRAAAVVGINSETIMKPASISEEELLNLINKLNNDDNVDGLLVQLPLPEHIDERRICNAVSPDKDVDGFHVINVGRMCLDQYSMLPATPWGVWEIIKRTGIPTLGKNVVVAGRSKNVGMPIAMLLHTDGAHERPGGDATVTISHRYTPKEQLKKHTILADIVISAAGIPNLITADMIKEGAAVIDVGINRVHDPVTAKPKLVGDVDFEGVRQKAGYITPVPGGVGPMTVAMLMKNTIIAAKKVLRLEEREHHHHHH
To be noted: published values (Yang and MacKenzie 1993); cited from earlier work.

The target of assay [2] is T1, MTHFD2. As to the kind of experiment: Enzyme kinetics of recombinant MTHFD2 in the modified 384 well assay. The class given is biochemical. Conditions: recombinant MTHFD2, 384 well plate format; read-out: Km, Measured. The procedure:
(§1) The NAD-dependent methylenetetrahydrofolate dehydrogenase/cyclohydrolase activity assay employed in this microtiter well based screen is based on previously published enzymatic assays, with modifications as listed below. The assay was initially reported by Scrimgeour and Huennekens, Biochem. Biophys. Res. Commun. 1960, 2:230-233 and subsequently by Mejia and MacKenzie, The Journal of biological chemistry. 1985; 260:14616-14620). The assay was performed as described with slight modifications (reported assay concentrations in the Mejia et al. assay are provided in brackets below). The modified assay utilized 50 ng of recombinant MTHFD2 protein produced as described in Example 11 per well in 384 well format. In addition, the present assay utilized 30 […], at pH 7.5 (7.3), with 150 uM formaldehyde (2.5 mM), 150 uM tetrahydrofolate (250 uM) and 6 mM MgCl (5 mM). No 2-mercaptoethanol or reducing agents were used in the present assay, which is crucial for detection of cysteine modifying compounds as potential enzyme inhibitors. The assay employed for high-throughput screening for chemical inhibitors used the final endpoint measure of formation of 5,10-methenyltetrahydrofolate by spectrophotometric absorbance at 340 nm.

The next assay concerns NCI-60 cancer cell lines. Kind of assay: Association between glycine consumption and compound sensitivity (GI50) across the 60 cell lines. The class given is cell-based, human. Conditions: NCI public data, FIG. 3. The source says: Compound sensitivity data for glutathione biosynthesis and de novo purine biosynthesis inhibitors was obtained from the NCI data repository (October 2009 release). Compound sensitivity was quantified using the GI50 measure (Shoemaker, Nat Rev Cancer. 2006; 6:813-823), defined as the compound concentration inhibiting cell growth by 50%. For those compounds in which multiple experiments with different concentration ranges were available, the experiment with the least degree of saturation was used.
Given the observation that glycine consumption is correlated to rapid cancer cell proliferation (see Examples 1-5, above), the present inventors sought to determine whether glycine consumption predicts sensitivity to particular chemotherapeutic agents. The association between glycine update and sensitivity to 3851 annotated small molecules (data provided to the public by NCI) was examined bioinformatically across the 60 cell lines.

Another assay deals with T2, MTHFD2 C166S mutant (Homo sapiens, UniProt P13995, C166S).
T2 construct: 12 amino acids were removed from the unstructured C-terminus of the protein, and a 6-histidine tag added to facilitate purification; 6-histidine tag (C); made in house
T2 sequence (P13995 with tags, fused parts or gaps C166S): T1 sequence (P13995 with tags, fused parts or gaps) with C132S
As to the kind of experiment: Same activity assay on MTHFD2 C166 cysteine to serine mutant. In kind it is biochemical. The procedure: as §1, with “nm. […]” for “nm.”

Assay [3] deals with T3, MTHFD2 C145S/C166S mutant (Homo sapiens, UniProt P13995, C145S/C166S).
T3 construct: 12 amino acids were removed from the unstructured C-terminus of the protein, and a 6-histidine tag added to facilitate purification; 6-histidine tag (C); made in house
T3 sequence (P13995 with tags, fused parts or gaps C145S/C166S): T1 sequence (P13995 with tags, fused parts or gaps) with C111S, C132S
Kind of assay: Same activity assay on MTHFD2 C145/C166 double mutant. The class given is biochemical. Here is the method: as §1, with “nm. […]” for “nm.”

Assay [4] concerns the target T4, recombinant MTHFD2 protein (human, wild type) (Homo sapiens, UniProt P13995).
T4 construct: 12 amino acids were removed from the unstructured C-terminus of the protein, and a 6-histidine tag added to facilitate purification; 6-histidine tag (C); made in house; host or cells: E. coli One Shot BL21 Star (DE3), pET-30a(+)
T4 sequence (P13995 with tags, fused parts or gaps): T1 sequence (P13995 with tags, fused parts or gaps)
As to the kind of experiment: NAD-dependent methylenetetrahydrofolate dehydrogenase/cyclohydrolase activity assay, 384 well, no reducing agents. To be noted: for inhibition of MTHFD2 enzyme in high throughput screen: screen of about 5,100 small molecules, biological duplicate, no reducing agents. In kind it is biochemical. Here is the method: as §1
The assay described in Example 12 was used to screen a library of about 5,100 small molecule agents in the Prestwick chemical library, Known Bioactives Library and Library of Pharmacologically Active Compounds, in biological duplicate. […] Several of the high scoring inhibitors are known cysteine modifiers that could in principle inhibit enzyme activity by modification of cysteine residues.
Three mutant MTHFD2 constructs were generated with Agilent QuikChange Lightening, with cysteine to serine mutations at C145, C166 or both C145/C166. These mutants were retested with three of the compounds identified in the secondary screen (6-hydroxy-DL-DOPA, Celastrol, and Ebselen). […] Given the identification of these cysteine residues, additional structure/medicinal chemistry may be employed to specifically design small molecules that take advantage of these cysteine residues and inhibit MTHFD2 with greater selectivity.

The target in the next assay is T5, MTHFD2 C145S mutant (Homo sapiens, UniProt P13995, C145S).
T5 construct: 12 amino acids were removed from the unstructured C-terminus of the protein, and a 6-histidine tag added to facilitate purification; 6-histidine tag (C); made in house
T5 sequence (P13995 with tags, fused parts or gaps C145S): T1 sequence (P13995 with tags, fused parts or gaps) with C111S
As to the kind of experiment: Same activity assay on MTHFD2 C145 cysteine to serine mutant. In kind it is biochemical. Here is the method:
as §1, with “nm. […]” for “nm.”

A further assay has as its system LOX IMVI cells. As to the kind of experiment: Rescue of SHMT2-silenced LOX IMVI cells grown in the absence of glycine. The class given is cell-based, human. To be noted: supplement 140 μM.
The test system of assay [5] is 10 additional primary cancer cell lines from the NCI-60 panel. Conditions: FIG. 1G.
Method: (§2) For lentiviral infection, 100,000 cells were seeded in a 6-well dish in 2 mL medium containing 8 μg/ml Polybrene and 100 μl viral supernatant added. Plates were centrifuged at 800×g for 30 minutes at 37° C., and the medium replaced. Twenty-four hours later, cells were selected for infection by the addition of 2 μg/ml puromycin. […] Cells were passaged for >10 cell divisions to ensure stable expression of the shRNA construct. For assessment of SHMT2 knockdown, mRNA was isolated from cells using RNeasy kit (Qiagen), and qRT-PCR was performed for SHMT2 and HPRT1 using the Taqman assay (Applied Biosystems assay ID Hs00193658_m1* and Hs01003267_m1*, respectively), according to manufacturer's instructions. For experiments using A498 and LOX IMVI, cells were infected with either sh1-4 or shCtrl lentivirus and stable expressing cells selected as above. For experiments utilizing NCI-H226, HS-578T, TK10, EKVX, OVCAR-8, U251, A549, HT29, NCI-460 and HCT-116, cells were infected with either sh4 or shCtrl lentivirus and stable expressing cells selected as above. […] For all experiments, cells were counted and cell counts expressed as fold change over time. […] Cells were counted at regular time intervals as described above. All experiments were performed using at least 10 independent cell cultures.

Positions count from the first letter of the chain named. Read-outs that look alike come from different tables or passages of the source.

Method for LOX IMVI cells: as §2

Regarding `Nc1nc2c(c(=O)[nH]1)N1CN(c3ccc(C(=O)N[C@@H](CCC(=O)O)C(=O)O)cc3)CC1CN2` (some centres unmarked) [5,10 CH2—THF], the Km was 6.7 µM on MTHFD2 [1] and 4.1 µM on MTHFD2 [2]. In the case of `O=c1[nH]cc(F)c(=O)[nH]1` [5-fluorouracil], the “sensitivity of glycine consuming cells to the agent (correlation of glycine consumption with sensitivity)” value in the assay with NCI-60 cancer cell lines is “not more sensitive”.

As to `NC(Cc1cc(O)c(O)cc1O)C(=O)O` (stereo not drawn) [6-hydroxy-DL DOPA], the “inhibition of C166 mutant MTHFD2” value at MTHFD2 C166S mutant is on record as “inhibited”. The “inhibition of C145/C166 double mutant MTHFD2” value in [3] is recorded as “inhibited”. In addition, the “inhibition of wild type MTHFD2 with addition of the reducing agent DTT” value in assay [4] (plus DTT) is “not antagonized”. Further, in assay [4] (retest with mutants, FIGS. 9A-C), the “inhibition of wild type MTHFD2” value is recorded as “inhibited”. Besides, the “inhibition of MTHFD2 enzyme in high throughput screen” value (shortened to “inhibition of MTHFD2 enzyme”) in assay [4] was “inhibit the enzyme”. Also, the “inhibition of C145 mutant MTHFD2” value against MTHFD2 C145S mutant was “inhibited”. With `O=C1Nc2ccc(I)cc2/C1=C/c1cc(Br)c(O)c(Br)c1` [GW5074], the “inhibition of MTHFD2 enzyme” value in assay [4] is “inhibit the enzyme”.

Consider `NC(=O)c1ccc[n+]([C@@H]2O[C@H](COP(=O)([O-])OP(=O)(O)OC[C@H]3O[C@@H](n4cnc5c(N)ncnc54)[C@H](O)[C@@H]3O)[C@@H](O)[C@H]2O)c1` [NAD+], for which the Michaelis-Menten constant (Km) on MTHFD2 [1] is 56.4 µM; on MTHFD2 [2], 51.5 µM. Turning to `Clc1ccc(C(c2ccc(Cl)cc2)n2cc[n+](CC(OCc3ccc(Cl)cc3Cl)c3ccc(Cl)cc3Cl)c2)cc1` (centres unmarked) [calmidazolium chloride], the “inhibition of MTHFD2 enzyme” value in assay [4] was “inhibit the enzyme”. Turning to `O=CO` [formate], the “rescue of proliferation of SHMT2-silenced LOX IMVI cells” value with LOX IMVI cells is “failed to rescue”. As to `NCC(=O)O` [glycine], the “rescue by addition of extracellular glycine in rapidly proliferating SHMT2-silenced cancer cells” value in assay [5] is listed as “rescued”. Moreover, the “rescue of proliferation of SHMT2-silenced LOX IMVI cells” value in the assay with LOX IMVI cells is recorded as “rescued”. As for `NC(=O)CI` [iodoacetamide], in assay [4], the “inhibition of MTHFD2 enzyme” value is given as “inhibit the enzyme”. On to `CN(Cc1cnc2nc(N)nc(N)c2n1)c1ccc(C(=O)N[C@@H](CCC(=O)O)C(=O)O)cc1` [methotrexate, Glutamic acid, N-[p-[[(2,4-diamino-6-pteridinyl)methyl]methylamino]benzoyl]-, L-(+)-(8CI)], for which the “sensitivity of glycine consuming cells to the agent (correlation of glycine consumption with sensitivity)” value in the assay with NCI-60 cancer cell lines is given as “uniquely sensitive”. With `O=C1C=CC(=O)C=C1` [para-benzoquinone], the “inhibition of MTHFD2 enzyme” value in assay [4] is “inhibit the enzyme”.

Regarding `C=CC1=C(C)c2cc3[nH]c(cc4nc(cc5[nH]c(cc1n2)c(C)c5CCC(=O)O)C(CCC(=O)O)=C4C)c(C)c3C=C` [protoporphyrin IX disodium], the “inhibition of MTHFD2 enzyme” value in [4] was “inhibit the enzyme”.

The record behind these values is patent publication US20160032401A1, “Glycine, Mitochondrial One-Carbon Metabolism, and Cancer” (THE GENERAL HOSPITAL CORPORATION, priority 2013, published 2016).
